From patent US4843075A, “Benzothiopyrano[4,3-c]pyridazine compounds, methods for preparing said compounds and uses of said compounds” (Yoshitomi Pharmaceutical Industries, Ltd., priority 1986, dated 1989)

Molecular target: benzodiazepine receptor
Assay: Displacement ability for benzodiazepine receptor (displacement of tritiated diazepam)
Conditions: displacement of tritiated diazepam (2 nM), rat cerebral cortex synaptosomal fraction, pH 7.4, 0° C., 20 minutes; read-out: binding for benzodiazepine Ki
Protocol: The experiment was performed according to the methods described in European Journal of Pharmacology, vol. 51, P. 129 (1978) and Life Science, vol. 20, p. 1201 (1977).
In brief, a crude synaptosomal fraction was isolated from the cerebral cortex of 9 to 10 week-old male Wistar rats and suspended in 50 mM of Tris-hydrochloric acid buffer solution (pH 7.4) containing 120 mM of sodium chloride and 5 mM of potassium chloride.
To the synaptosomal suspension as prepared above were added various concentrations of test compounds and tritiated diazepam (final concentration:2 nM), and the mixture was incubated at 0° C. for 20 minutes. Then the suspension was filtered through Whatman GF/B glass fiber filter. After the filter was washed with the foregoing buffer solution, the radioactivity left on the filter was measured by a liquid scintillation spectrometry.
Specific binding was determined by subtracting binding in the presence of 10^-6 M unlabelled diazepam from total binding.
According to the above experimental method, the affinity of the compounds of the present invention for benzodiazepine receptor is evaluated as an ability to displace tritiated diazepam from the binding site, and is represented as Ki value.
`O=C1CC2CSc3ccccc3C2=NN1c1ccc(Cl)cc1` (centres unmarked) [Example 1, 2-(4-chlorophenyl)-2,3,4,4a-tetrahydro-5H-(1)benzothiopyrano[4,3-c]pyridazin-3-one] showed a Ki of 40 nM.
Compound `Cc1ccc(N2N=C3c4ccccc4SCC3CC2=O)cc1` (centres unmarked) [Example 9, 2-(4-methylphenyl)-2,3,4,4a-tetrahydro-5H-(1)benzothiopyrano[4,3-c]pyridazin-3-one] has a Ki of 12 nM.
Compound `COc1ccc(N2N=C3c4ccccc4SCC3CC2=O)cc1` (centres unmarked) [Example 10, 2-(4-methoxyphenyl)-2,3,4,4a-tetrahydro-5H-(1)benzothiopyrano[4,3-c]pyridazin-3-one] has a Ki of 13 nM.
Work on `O=C1CC2CSc3ccccc3C2=NN1c1ccc(Br)cc1` (centres unmarked) [Example 13, 2-(4-bromophenyl)-2,3,4,4a-tetrahydro-5H-(1)benzothiopyrano[4,3-c]pyridazin-3-one] yielded a Ki of 45 nM.

Tested on: not listed separately
Assay: Anti-bicuculline effect (tonic convulsion in mice)
Type: in vivo, male ddY-strain mice
Conditions: Mus musculus, oral, (+)bicuculline 0.6 mg/kg i.v. 1 hour after test compound, tonic convulsion within 5 minutes
Protocol: The experiment of anti-bicuculline effect was performed according to the method described in Life Science, vol. 21, p. 1779 (1977).
In brief, groups of 7-14 male ddY-strain mice weighing 20-28 g were used. (+)Bicuculline (0.6 mg/kg) was intraveneously administered 1 hour after the oral adminstration of test compound, and the ED50, 50% effective dose, was determined by observing the existence of tonic convulsion within 5 minutes.
In the case of `O=C1CC2CSc3ccccc3C2=NN1c1ccc(Cl)cc1` (centres unmarked) [Example 1, 2-(4-chlorophenyl)-2,3,4,4a-tetrahydro-5H-(1)benzothiopyrano[4,3-c]pyridazin-3-one], the ED50 is reported as 12.4 mg/kg.
In the case of `O=C1CC2C[S+]([O-])c3ccccc3C2=NN1c1ccc(Cl)cc1` (centres unmarked) [Example 3, 2-(4-chlorophenyl)-2,3,4,4a-tetrahydro-5H-(1)benzothiopyrano[4,3-c]pyridazin-3-one 6-oxide], the ED50 is reported as 4.1 mg/kg.
`O=C1CC2C[S+]([O-])c3ccc(F)cc3C2=NN1c1ccc(Cl)cc1` (centres unmarked) [Example 19, 2-(4-chlorophenyl)-9-fluoro-2,3,4,4a-tetrahydro-5H-(1)benzothiopyrano[4,3-c]pyridazin-3-one 6-oxide] gave an ED50 of 10.6 mg/kg.
Compound `Cc1ccc2c(c1)C1=NN(c3ccc(Cl)cc3)C(=O)CC1C[S+]2[O-]` (centres unmarked) [Example 23, 2-(4-chlorophenyl)-9-methyl-2,3,4,4a-tetrahydro-5H-(1)benzothiopyrano[4,3-c]pyridazin-3-one 6-oxide] has an ED50 of 40.6 mg/kg.
